{
  "source": "patent US10414763B2",
  "about": "(CANCER RESEARCH TECHNOLOGY LIMITED, priority 2014, dated 2019)",
  "data": [
    {"biological_target": "T1, full-length human PKCι (Homo sapiens, UniProt P41743)", "T1 construct": "Recombinant, full-length human PKCι expressed in Sf21 insect cells is also commercially available; purchased EMD Millipore; host or cells: Sf21 insect cells (baculovirus)", "T1 sequence (P41743 1-596)": "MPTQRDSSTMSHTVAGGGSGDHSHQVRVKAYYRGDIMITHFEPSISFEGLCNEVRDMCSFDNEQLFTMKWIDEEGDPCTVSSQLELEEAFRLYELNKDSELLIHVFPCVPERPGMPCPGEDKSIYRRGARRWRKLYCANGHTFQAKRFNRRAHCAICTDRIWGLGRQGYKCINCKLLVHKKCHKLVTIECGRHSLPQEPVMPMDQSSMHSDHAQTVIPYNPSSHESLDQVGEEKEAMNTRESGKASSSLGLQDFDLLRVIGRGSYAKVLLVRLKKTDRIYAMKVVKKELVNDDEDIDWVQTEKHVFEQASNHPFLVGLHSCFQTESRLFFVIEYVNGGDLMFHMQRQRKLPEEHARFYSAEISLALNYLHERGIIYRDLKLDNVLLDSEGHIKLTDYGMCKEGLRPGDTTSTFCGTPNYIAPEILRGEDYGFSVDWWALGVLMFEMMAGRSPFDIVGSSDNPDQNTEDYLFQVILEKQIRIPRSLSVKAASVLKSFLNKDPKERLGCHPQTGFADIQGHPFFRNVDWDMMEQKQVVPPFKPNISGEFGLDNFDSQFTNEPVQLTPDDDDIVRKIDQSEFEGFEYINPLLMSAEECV", "assay": "PKCι IC50 IMAP fluorescence polarisation assay, full-length enzyme, 150 μM ATP", "assay_type": "biochemical", "conditions": "read-out: IC50 in IMAP assay against full length PKCi at 150 μM ATP", "summary_of_the_method": "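IMAP fluorescence polarisation kinase assay: 15 pM baculovirus-expressed human PKCiota with 100 nM FAM-pseudosubstrate peptide and 150 μM ATP, 1 h at 25 °C. IMAP detection reagent then 2 h at 25 °C before FP measurement. Inhibition referenced to no-compound and no-enzyme controls for IC50 fitting.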", "units": {"IC50": "nM"}, "values": [
      {"smiles": "NC[C@H]1CCN(c2nc(-c3ccnc4[nH]c5ccccc5c34)nc3cncc(C4CCC4)c23)C1", "note": "[Example 249, C-{(R)-1-[5-Cyclobutyl-2-(9H-pyrido[2,3-b]indol-4-yl)-pyrido[3,4-d]pyrimidin-4-yl]-pyrrolidin-3-yl}-methylamine]", "IC50": "< 100"},
      {"smiles": "c1ccc2c(c1)[nH]c1nccc(-c3nc(N4CCC5(CCCNC5)C4)c4c(C5CCC5)cncc4n3)c12", "note": "(centres unmarked) [Example 250, 4-[5-Cyclobutyl-4-(2,7-diaza-spiro[4.5]dec-2-yl)-pyrido[3,4-d]pyrimidin-2-yl]-9H-pyrido[2,3-b]indole]", "IC50": "< 100"},
      {"smiles": "c1ccc2c(c1)[nH]c1nccc(-c3nc(NCC4COCCN4)c4c(C5CCC5)cncc4n3)c12", "note": "(centres unmarked) [Example 251, [5-Cyclobutyl-2-(9H-pyrido[2,3-b]indol-4-yl)-pyrido[3,4-d]pyrimidin-4-yl]-morpholin-3-ylmethyl-amine]", "IC50": "1000 to 10000"},
      {"smiles": "O[C@@H]1CCN(c2nc(-c3ccnc4[nH]c5ccccc5c34)nc3cncc(C4CCC4)c23)C1", "note": "[Example 252, (R)-1-[5-Cyclobutyl-2-(9H-pyrido[2,3-b]indol-4-yl)-pyrido[3,4-d]pyrimidin-4-yl]-pyrrolidin-3-ol]", "IC50": "1000 to 10000"},
      {"smiles": "O[C@H]1CCN(c2nc(-c3ccnc4[nH]c5ccccc5c34)nc3cncc(C4CCC4)c23)C1", "note": "[Example 253, (S)-1-[5-Cyclobutyl-2-(9H-pyrido[2,3-b]indol-4-yl)-pyrido[3,4-d]pyrimidin-4-yl]-pyrrolidin-3-ol]", "IC50": "1000 to 10000"},
      {"smiles": "CC1(C)CNCC[C@@H]1Nc1nc(-c2ccnc(Nc3c(F)cccc3F)c2)nc2cncc(C3CC3)c12", "note": "[Example 254, {5-Cyclopropyl-2-[2-(2,6-difluoro-phenylamino)-pyridin-4-yl]-pyrido[3,4-d]pyrimidin-4-yl}-((S)-3,3-dimethyl-piperidin-4-yl)-amine]", "IC50": "< 100"},
      {"smiles": "CC1(C)CNCC[C@@H]1Nc1nc(-c2ccnc(Nc3c(F)cccc3F)c2)nc2cncc(C3CCC3)c12", "note": "[Example 255, {5-Cyclobutyl-2-[2-(2,6-difluoro-phenylamino)-pyridin-4-yl]-pyrido[3,4-d]pyrimidin-4-yl}-((S)-3,3-dimethyl-piperidin-4-yl)-amine]", "IC50": "< 100"},
      {"smiles": "Fc1ccc(F)c(Nc2cc(-c3nc(N4CCOC5CNCC54)c4c(C5CCC5)cncc4n3)ccn2)n1", "note": "(centres unmarked) [Example 256, {4-[5-Cyclobutyl-4-(hexahydro-pyrrolo[3,4-b]-1,4-oxazin-4-yl)-pyrido[3,4-d]pyrimidin-2-yl]-pyridin-2-yl}-(3,6-difluoro-pyridin-2-yl)-amine]", "IC50": "< 100"},
      {"smiles": "Cc1cc2c(-c3nc(N4CCOC5CNCC54)c4c(C5CCC5)cncc4n3)ccnc2[nH]1", "note": "(centres unmarked) [Example 257, 5-Cyclobutyl-4-(hexahydro-pyrrolo[3,4-b]-1,4-oxazin-4-yl)-2-(2-methyl-1H-pyrrolo[2,3-b]pyridin-4-yl)-pyrido[3,4-d]pyrimidine]", "IC50": "< 100"},
      {"smiles": "Fc1cccc(F)c1Nc1cc(-c2nc(N3CCOC4CNCC43)c3c(C4CCC4)cncc3n2)ccn1", "note": "(centres unmarked) [Example 258, {4-[5-Cyclobutyl-4-(hexahydro-pyrrolo[3,4-b]-1,4-oxazin-4-yl)-pyrido[3,4-d]pyrimidin-2-yl]-pyridin-2-yl}-(2,6-difluoro-phenyl)-amine]", "IC50": "< 100"},
      {"smiles": "Fc1cccnc1-c1cc2c(-c3nc(N4CCOC5CNCC54)c4c(C5CCC5)cncc4n3)ccnc2[nH]1", "note": "(centres unmarked) [Example 259, 5-Cyclobutyl-2-[2-(3-fluoro-pyridin-2-yl)-1H-pyrrolo[2,3-b]pyridin-4-yl]-4-(hexahydro-pyrrolo[3,4-b]-1,4-oxazin-4-yl)-pyrido[3,4-d]pyrimidine]", "IC50": "< 100"},
      {"smiles": "CC1CC(Nc2nc(-c3ccnc(Nc4ncccc4F)c3)nc3cncc(C4CC4)c23)CC(C)N1", "note": "(centres unmarked) [Example 260, {5-Cyclopropyl-2-[2-(3-fluoro-pyridin-2-ylamino)-pyridin-4-yl]-pyrido[3,4-d]pyrimidin-4-yl}-(2,6-dimethyl-piperidin-4-yl)-amine]", "IC50": "100 to 1000"},
      {"smiles": "CC1(C)CNCC[C@@H]1Nc1nc(-c2ccnc(Nc3cccnc3)c2)nc2cncc(C3CCC3)c12", "note": "[Example 264, 5-cyclobulyl-N-[(4S)-3,3-dimethyl-4-piperidyl]-2-[2-(3-pyridylamino)-4-pyridyl]pyrido[3,4-d]pyrimidin-4-amine]", "IC50": "< 100"},
      {"smiles": "CC1(C)CNCC[C@@H]1Nc1nc(-c2ccnc(Nc3cncc(F)c3)c2)nc2cncc(C3CC3)c12", "note": "[Example 265, 5-cyelopropyl-N-[(4S)-3,3-dimethyl-4-piperidyl]-2-[2-[(5-fluoro-3-pyridyl)amino]-4-pyridyl]pyrido[3,4-d]pyrimidin-4-amine]", "IC50": "100 to 1000"},
      {"smiles": "CC1(C)CNCC[C@@H]1Nc1nc(-c2ccnc(Nc3cncc(Cl)c3)c2)nc2cncc(C3CC3)c12", "note": "[Example 266, 2-[2-[(5-chloro-3-pyridyl)amino]-4-pyridyl]-5-cyclopropyl-N-[(4S)-3,3-dimethyl-4-piperidyl]pyrido[3,4-d]pyrimidin-4-amine]", "IC50": "100 to 1000"},
      {"smiles": "CC1(C)CNCC[C@@H]1Nc1nc(-c2ccnc(N[C@H](C(=O)O)c3ccccc3)c2)nc2cncc(C3CC3)c12", "note": "[Example 267, (2S)-2-[[4-[5-cyclopropyl-4-[[(4S)-3,3-dimethyl-4-piperidyl]amino]pyrido[3,4-d]pyrimidin-2-yl]-2-pyridyl]amino]-2-phenyl-acetic acid]", "IC50": "1000 to 10000"},
      {"smiles": "COc1cncc2nc(-c3ccnc(Nc4nc(F)ccc4F)c3)nc(N[C@H]3CCNCC3(C)C)c12", "note": "[Example 268, 2-[2-[(3,6-difluoro-2-pyridyl)amino]-4-pyridyl]-N-[(4S)-3,3-dimethyl-4-piperidyl]-5-methoxy-pyrido[3,4-d]pyrimidin-4-amine]", "IC50": "< 100"},
      {"smiles": "COc1cncc2nc(-c3ccnc(Nc4ncccc4F)c3)nc(N[C@H]3CCNCC3(C)C)c12", "note": "[Example 269, N-[(4S)-3,3-dimethyl-4-piperidyl]-2-[2-[(3-fluoro-2-pyridyl)amino]-4-pyridyl]-5-methoxy-pyrido[3,4-d]pyrimidin-4-amine]", "IC50": "100 to 1000"},
      {"smiles": "Cc1cccc(Nc2cc(-c3nc(N[C@H]4CCNCC4(C)C)c4c(C5CCC5)cncc4n3)ccn2)n1", "note": "[Example 271, {5-Cyclobutyl-2-[2-(6-methyl-pyridin-2-ylamino)-pyridin-4-yl]-pyrido[3,4-d]pyrimidin-4-yl}-((S)-3,3-dimethyl-piperidin-4-yl)-amine]", "IC50": "< 100"},
      {"smiles": "Cc1nc(Nc2cc(-c3nc(N[C@H]4CCNCC4(C)C)c4c(C5CCC5)cncc4n3)ccn2)ccc1C#N", "note": "[Example 272]", "IC50": "< 100"},
      {"smiles": "CC1(C)CNCC[C@@H]1Nc1nc(-c2ccnc(Nc3nc4ccccc4o3)c2)nc2cncc(C3CCC3)c12", "note": "[Example 274, {2-[2-(Benzoxazol-2-ylamino)-pyridin-4-yl]-5-cyclobutyl-pyrido[3,4-d]pyrimidin-4-yl}-((S)-3,3-dimethyl-piperidin-4-yl)-amine]", "IC50": "< 100"},
      {"smiles": "CC1(C)CNCC[C@@H]1Nc1nc(-c2ccnc(Nc3nc4ccccn4n3)c2)nc2cncc(C3CCC3)c12", "note": "[Example 275, {5-Cyclobutyl-2-[2-([1,2,4]triazolo[1,5-a]pyridin-2-ylamino)-pyridin-4-yl]-pyrido[3,4-d]pyrimidin-4-yl}-((S)-3,3-dimethyl-piperidin-4-yl)-amine]", "IC50": "< 100"},
      {"smiles": "CC1(C)CNCC[C@@H]1Nc1nc(-c2ccnc(Nc3nc(F)c(F)cc3F)c2)nc2cncc(C3CC3)c12", "note": "[Example 278, {5-Cyclopropyl-2-[2-(3,5,6-trifluoro-pyridin-2-ylamino)-pyridin-4-yl]-pyrido[3,4-d]pyrimidin-4-yl}-((S)-3,3-dimethyl-piperidin-4-yl)-amine]", "IC50": "< 100"}
    ]}
  ]
}
